Point of comparison: `CC#CCOc1ccc(S(=O)(=O)C(C(=O)NO)C2CCNCC2)cc1` (stereo not drawn), melting point 140 °C. Against it:
- NS(=O)(=O)c1ccc(CC(=O)C=CC(=O)O)cc1 — higher, 180 to 181 °C
- CN(C)Cc1cccc(OCCCNc2nc(N)nn2C)c1 — lower, 95 to 96.5 °C
- CC(C)C1C(=O)Nc2ccc(O)cc21 (stereo not drawn) — higher, 175 °C
- NC(=O)C1=CN(CCC(=O)NCCc2ccccc2)C=CC1 — lower, 121 to 123 °C
- CN(C)/C=C(\C#N)c1cccc(Br)c1 — lower, 102 to 105 °C
- CCCCC(C)c1ccc(C=Cc2cc3cc4ccccc4cc3s2)cc1 (stereo not drawn) — higher, 280 to 282 °C
- Cc1cc(C)c2c(c1C)O[C@@H](C)[C@H]2c1ccc(C(C)C)cc1 (relative stereo) — lower, 79 to 80 °C
- CN1C(=O)N(C)C(=O)C(Cc2ccccc2)(Cc2ccccc2)C1=O — lower, 128 to 129 °C
- O=C1Nc2ccc(Cl)cc2C1(c1ccccc1)c1ccccc1 — higher, 281 °C
- COc1ccccc1CN[C@H]1CCCN[C@H]1c1ccc2ccccc2c1 (relative stereo) — higher, > 250 °C
- COc1ccc(C2=NNC(=O)CC2c2ccncc2)cc1 (stereo not drawn) — lower, 100 to 102 °C
- CCOC(=O)C1=C(C)NC(C)=C(C(=O)OCCN)C1c1cccc([N+](=O)[O-])c1 (stereo not drawn) — lower, 137 to 139 °C
- O=C(Cc1cccc2ccccc12)NCc1cccc2c1C(=O)N(C1CCC(=O)NC1=O)C2=O (stereo not drawn) — higher, 187 to 189 °C
- COc1ccc(CNc2nc(N3CCC[C@H]3CO)ncc2C(=O)O)cc1Cl — higher, 205 to 208 °C
- COc1cc(Nc2ncnc3cc(OCCCc4ccncc4)c(OC)cc23)c(OC)cc1Cl — higher, 205 to 208 °C
- NS(=O)(=O)c1cc2c(cc1Cl)NC(c1ccccc1)NS2(=O)=O (stereo not drawn) — higher, 235 to 238 °C
- CCOC(=O)CNc1ncccc1NC(=O)c1ccc(OC)cc1 — lower, 130 to 131 °C
- CN(Cc1cccc2c1C(=O)N(C1CCC(=O)NC1=O)C2=O)C(=O)NC(C)(C)C (stereo not drawn) — higher, 188 to 190 °C
- OCCN(CCO)Cc1ccc(-c2cc3ncnc(Nc4ccc5[nH]ccc5c4)c3s2)cc1 — lower, 110 to 127 °C
- O=C(CN1CCCCC1)Nc1ccc2cc3ccc(NC(=O)CN4CCCCC4)cc3nc2c1 — higher, 192 to 194 °C
- CCOC(=O)Cn1nc(-c2cc(Cl)ccc2O)nc1-c1cc(Cl)ccc1O — higher, 195 to 200 °C
- COC(=O)[C@@H]1CCCCN1S(=O)(=O)c1ccc(Cl)c(COc2cccc3c(-n4ccnc4)cc(C)nc23)c1Cl — lower, 81 °C
- CCOCc1nc2c(N)nc3cc(-c4cccc(CO)c4)cnc3c2n1CC(C)(C)O — higher, 186 to 187 °C
- CCc1cc(O)cc(C)c1N — higher, 167 to 170 °C
- Fc1cc(Cl)cc(Cn2cccc2)c1 — lower, 48 to 50 °C
- CC1SC(=O)NN=C1c1ccc2c(c1)C1(CCCS1)C(=O)N2 (stereo not drawn) — higher, 205 °C
- CN1C(=O)CCC2(C)C3CCC4(C)C(Oc5ccc([N+](=O)[O-])cc5)CCC4C3CCC12 (stereo not drawn) — higher, 183 to 184 °C
- COc1cccc2c1C(=O)c1ccccc1C2(CC(=O)O)CC(=O)O — higher, 239 to 243 °C
- c1ccc(C2NCCc3sccc32)cc1 (stereo not drawn) — lower, 79.8 to 80.7 °C
- C=Cc1cccc2ccc(O)nc12 — lower, 96 °C
- CC(C)CC(C(=O)O)N(C)C(C)C (stereo not drawn) — higher, 159 to 160 °C
- CCc1noc(CC(O)c2ccccc2)c1C(=O)NC (stereo not drawn) — lower, 135 to 137 °C
- Fc1ccc(-c2nc3ccc(N4CCN(C5CC5)CC4)nn3c2-c2ccnnc2)cc1 — higher, 206 to 209 °C
- c1ccc(CN2CCN(Cc3nc4ccccc4[nH]3)CC2)cc1 — higher, 195 to 201 °C
- CS(=O)(=O)c1nnc(-c2ccco2)s1 — lower, 120 °C
- CC(C)CC1(CCCCN2CCN(c3cccc4c3OCCO4)CC2)C(=O)Nc2ccccc21 (stereo not drawn) — higher, 152 to 154 °C
- Cc1ccc(S(=O)(=O)N2[C@@H](c3nn[nH]n3)CC[C@H]2c2ccc(F)cc2)cc1 (racemic) — higher, 150 °C
- CNC(=O)c1[nH]c2ccccc2c1Sc1ccccc1 — higher, 201 to 204 °C
- O=C1Cc2ccccc2C(c2cccc(Cl)c2)N1 (stereo not drawn) — lower, 133 to 134 °C
- CCCCCCCCCCOc1ccccc1C(=N)OCC — lower, 93 to 96 °C
- NC(=O)C(O)c1ccsc1 (stereo not drawn) — lower, 114 to 120 °C
- CCCc1nc2cccc(C(O)=S)c2n1Cc1ccc(-c2ccccc2-c2nc(=O)o[nH]2)cc1 — higher, 220 to 221 °C
- COC(=O)c1ccc2c(c1)CCN2C(=O)OC(C)(C)C — lower, 107 to 108 °C
- S=c1[nH]ccn1C1CCc2ccccc21 (stereo not drawn) — lower, 136 to 137 °C
- Cc1ccc(Oc2ccc(C=O)cc2)cn1 — lower, 45 to 46 °C
- CCN(C(=O)c1nn(-c2ccc(Cl)cc2Cl)c(-c2ccc(Cl)cc2)c1C)N1CC=CCC1 — lower, 109 °C
- Cc1cccc(-c2nc3ccc(OCCCN(C)C)cc3n2Cc2ccccc2C(F)(F)F)c1 — lower, 74 °C
- Clc1csc(-c2cccnc2)n1 — lower, 84 to 86 °C
- CCc1ccc2c(c1)C=Cc1oc(C)nc1C2c1cn(Cc2cccc(C(=O)Nc3n[nH]c(C(F)(F)F)n3)c2)c(=O)[nH]c1=S (stereo not drawn) — higher, 142 to 145 °C
- CCCCC1(CCCC)CCc2ccc(OCc3ccc4ccccc4n3)cc2C1=O — lower, 88 to 89 °C
- CCOCc1nc2c(N)nc3ccccc3c2n1CCCc1cc(-c2cccnc2)no1 — higher, 199 to 200 °C
- CCCn1c(=O)c2c(nc(/C=C/c3cc(OC(C)=O)cc(OC(C)=O)c3)n2C)n(CCC)c1=O — higher, 224 to 225 °C
- CCc1ccc(Nc2nc3cc(NC(=O)c4ccc([N+](=O)[O-])cc4Cl)ccc3o2)cc1 — higher, > 250 °C
- COc1ccc(C(=O)c2ccco2)cc1OC — lower, 112 to 114 °C
- CCC(C#N)C(=O)Nc1ccc(C2=NNC(=O)CC2C)cc1 (stereo not drawn) — higher, 225 to 227 °C
- CCCc1cc(-c2nc3c(s2)CCCO3)ccc1O — higher, 152 to 154 °C
- Cc1cnn(-c2ccc(C(=O)N3C=C4CC=CN4Cc4ccccc43)cc2)c1 — higher, 179 to 181 °C
- O=C(O)C=Cc1cn(-c2ccccc2)nc1-c1ccc(Cl)cc1 — higher, 227 to 228 °C
- CC1Oc2ccccc2-n2cnc(-c3noc(C4CC4)n3)c21 (stereo not drawn) — higher, 162 °C
- COc1ccc(S(=O)(=O)N(CC(N)=O)c2ccc(Cl)cc2C(O)c2cc(Cl)ccc2Cl)cc1OC (stereo not drawn) — lower, 132 °C
- CC(C)n1nc(OCC(=O)c2ccc(F)cc2)c(-c2ccc(F)cc2)c1-c1ccc(S(C)(=O)=O)cc1 — higher, 184 to 185 °C
- COc1nc2cc(Cl)c(Cl)c(-c3nnnn3CCCO)c2nc1OC — higher, 188 to 189 °C
- O=C1C2=C(Nc3ccccc3C2)c2ccccc21 — higher, > 300 °C
- COc1ccc(C(=O)NC2N=C(c3ccccc3F)c3ccccc3NC2=O)cc1 (racemic) — higher, 231 to 233 °C
- COC[C@](C#N)(C(=O)OC)[C@H](c1ccccc1OC)c1cccc2ccccc12 — higher, 148 to 151 °C
- CC(C)N(CCCNC(=O)Cn1ncc(-c2ccccc2)c1-c1ccccc1)C(C)C — lower, 83 to 84 °C
- CN(Cc1ccccc1)c1nccc2ccccc12 — lower, 53.5 to 54.5 °C
- COCn1c(-c2nc3c(OC)ccc(N4CCOCC4)c3s2)nc2ccc(Cl)nc21 — higher, 167 to 170 °C
- CCCCCCCCOc1cc(-c2ccccc2)c(OCC(=O)O)c(-c2ccccc2)c1 — lower, 82 to 84 °C
- CCC(Cn1nc(-c2ccccc2)c(-c2ccccc2)c(C#N)c1=O)[N+](=O)[O-] (stereo not drawn) — higher, 154 to 155 °C
- CCCCC1CCc2c(OCc3ccc4ccccc4n3)cccc2C1O (stereo not drawn) — lower, 130 to 133 °C
- CCOC(=O)Cn1c2c(c3ccc(Cl)c(Cl)c31)CCN(C(=O)OC(C)(C)C)CC2 — lower, 132 to 135 °C
- COc1ccc(S(=O)(=O)N(CC(N)=O)c2c(CCc3ccccc3)cccc2OC)cc1OC — higher, 244 °C
- COc1ccc(OC2COc3ccc(O)cc3C2O)cc1 (stereo not drawn) — higher, 187 to 189 °C
- C[C@@H]1OCCN(c2nc(N3CCOCC3)nc(-n3c(C(F)F)nc4ccccc43)n2)[C@@H]1C (relative stereo) — higher, 176 to 178 °C
- O=C(O)c1ccc(CCOCCCCCCBr)cc1 — lower, 85 to 87.5 °C
- CCOC(=O)CCCCCCC(=O)Nc1ccc2c(c1)C(c1ccccc1)=N[C@@H](C)C(=O)N2C — lower, 55 to 56 °C
- O=C(c1ccoc1)c1cccc(-c2c(O)c3ccc(Cl)cc3[nH]c2=O)c1 — higher, 284 to 286 °C
- Cc1ccc(Cn2nc(CNC(=O)NC(C)(C)C)cc2-c2ccc(Cl)c(Cl)c2)cc1Cl — higher, 181 °C
- CCOP(=O)(Cc1ccc(N(C(=O)c2cc3c(s2)-c2c(SC)sc(C(N)=O)c2CC3)c2ccc(CP(=O)(OCC)OCC)cc2)cc1)OCC — higher, 262 to 263 °C
- COc1ccc(C(=O)N2c3ccccc3C(n3c4ccccc4c4ccccc43)CC2CCCCCN(C)C(C)=O)cc1OC (stereo not drawn) — higher, 173 to 175 °C
- Cc1cc2ccccc2nc1-n1cncn1 — lower, 80 to 81 °C
- COc1ccc(NC(=O)/C=C/c2cc(OC)c(OC)c(OC)c2)cc1N — higher, 202 to 204 °C
- COc1ccc([N+](=O)[O-])cc1CN1CCNCCNCCNCC1 — higher, 154 to 156 °C
- CN(CCCO)CC1(SSC2(CN(C)CCCO)CCCCC2)CCCCC1 — lower, 65 to 66 °C
- O=C1Nc2ccccc2SC[C@@H]1N1C(=O)c2ccccc2C1=O — higher, 202 to 205 °C
- Brc1cccc2[nH]cc(Cc3cccnc3)c12 — higher, 173 to 174 °C
- CC(=O)NC1CCN(c2cccc(C)n2)CC1 — higher, 145 to 147 °C
- CC#CCOc1cc(Oc2ccc(C#N)cc2)ncn1 — higher, 162 °C
- CCSc1ccc(C(=O)NCc2ccc3c(c2)C(=O)N(C2CCC(=O)NC2=O)C3=O)nn1 (stereo not drawn) — higher, 205 to 207 °C
- CC(Oc1ccc(Oc2ccc3ccc(Br)cc3n2)cc1)C(=O)NCC(=O)O (stereo not drawn) — higher, 157 to 159 °C
- CCOC(=O)Cc1ccc(NCCNC(=O)C2Cc3ccccc3N2S(=O)(=O)c2ccc(-c3cc(C(F)(F)F)ccc3Cl)cc2)cc1 (stereo not drawn) — lower, 55 to 63 °C
- O=[N+]([O-])c1cc2c(c3ccc(S(=O)(=O)NCCO)cc13)C(CCl)CN2 (stereo not drawn) — higher, 173 to 174 °C
- COc1ccc2nc(NC(=O)C(CC3CCCC3)c3ccc(S(=O)(=O)N(C(C)C)C(C)C)cc3)sc2n1 (stereo not drawn) — lower, 83 to 85 °C
- COc1cc(N)c(Cl)cc1C(=O)NCC1CCN(CCCCCC(=O)c2ccc3ccccc3c2)CC1 — lower, 113 to 116 °C
- O=[N+]([O-])c1cc(I)cnc1Cl — lower, 77 to 79 °C
- CCOC(=O)c1cn(C2CC2)c2c(F)c(F)c(Cl)cc2c1=O — higher, 169 to 172 °C

From a melting point compilation (Tetko et al.; mined from patent text by program, amines drawn as free bases though some values may be those of a salt)
